What was measured:
Test in all cases: relative viability (nuclei count vs DMSO), 5 days (fraction); higher = more cells survive
GSK126 + Dasatinib = compound: CC[C@H](C)N1C=C(C2=C(C=C(C=C21)C3=CN=C(C=C3)N4CCNCC4)C(=O)NCC5=C(C=C(NC5=O)C)C)C [GSK126] + Cc1nc(Nc2ncc(C(=O)Nc3c(C)cccc3Cl)s2)cc(N2CCN(CCO)CC2)n1 [Dasatinib] (partner 0.075 µM)
Method in brief: (§1)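 Dosing by pin tool came one day after lung cancer cell lines were seeded in 1536-well plates, using either one drug or a fixed anchor-drug dose plus five library-drug doses (not always all listed) in √10 steps. After 5 days, nuclei were counted on 4× images. Relative viability is treated-well nuclei count divided by vehicle-well nuclei count, and values are medians of duplicate plates.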

GSK126 + Phenformin = compound: CC[C@H](C)N1C=C(C2=C(C=C(C=C21)C3=CN=C(C=C3)N4CCNCC4)C(=O)NCC5=C(C=C(NC5=O)C)C)C [GSK126] + N=C(N)NC(=N)NCCc1ccccc1 [Phenformin] (partner 250 µM)
Method in brief: as §1

GSK126 + AZD7762 = compound: CC[C@H](C)N1C=C(C2=C(C=C(C=C21)C3=CN=C(C=C3)N4CCNCC4)C(=O)NCC5=C(C=C(NC5=O)C)C)C [GSK126] + NC(=O)Nc1cc(-c2cccc(F)c2)sc1C(=O)N[C@H]1CCCNC1 [AZD7762] (partner 0.2 µM)
Method in brief: as §1

MLN4924 + Decitabine = compound: NS(=O)(=O)OC[C@@H]1C[C@@H](n2ccc3c(N[C@H]4CCc5ccccc54)ncnc32)C[C@@H]1O [MLN4924] + Nc1ncn([C@H]2C[C@H](O)[C@@H](CO)O2)c(=O)n1 [Decitabine] (partner 2 µM)
Method in brief: as §1

| Cell Line | relative viability (GSK126 + Dasatinib; first compound 0.08 µM) | relative viability (GSK126 + Dasatinib; first compound 0.253 µM) | relative viability (GSK126 + Dasatinib; first compound 0.8 µM) | relative viability (GSK126 + Dasatinib; first compound 2.53 µM) | relative viability (GSK126 + Dasatinib; first compound 8 µM) | relative viability (GSK126 + Phenformin; first compound 0.08 µM) | relative viability (GSK126 + Phenformin; first compound 0.253 µM) | relative viability (GSK126 + Phenformin; first compound 0.8 µM) | relative viability (GSK126 + Phenformin; first compound 2.53 µM) | relative viability (GSK126 + Phenformin; first compound 8 µM) | relative viability (GSK126 + AZD7762; first compound 0.08 µM) | relative viability (GSK126 + AZD7762; first compound 0.253 µM) | relative viability (GSK126 + AZD7762; first compound 0.8 µM) | relative viability (GSK126 + AZD7762; first compound 2.53 µM) | relative viability (GSK126 + AZD7762; first compound 8 µM) | relative viability (MLN4924 + Decitabine; first compound 0.04 µM) | relative viability (MLN4924 + Decitabine; first compound 0.1265 µM) | relative viability (MLN4924 + Decitabine; first compound 0.4 µM) | relative viability (MLN4924 + Decitabine; first compound 1.265 µM) | relative viability (MLN4924 + Decitabine; first compound 4 µM) |
| --- | --- | --- | --- | --- | --- | --- | --- | --- | --- | --- | --- | --- | --- | --- | --- | --- | --- | --- | --- | --- |
| 201T | 0.558 | 0.639 | 0.61 | 0.607 | 0.519 | 0.478 | 0.46 | 0.443 | 0.437 | 0.387 | 0.704 | 0.622 | 0.617 | 0.65 | 0.567 | 0.88 | 0.653 | 0.582 | 0.368 | 0.293 |
| A549 |  |  |  |  |  | 0.245 | 0.169 | 0.126 | 0.131 | 0.114 |  |  |  |  |  | 0.213 | 0.189 | 0.112 | 0.0579 | 0.0418 |
| A-427 | 0.76 | 0.638 | 0.634 | 0.799 | 0.635 | 0.362 | 0.34 | 0.311 | 0.346 | 0.258 | 0.82 | 0.703 | 0.667 | 0.825 | 0.542 | 0.445 | 0.421 | 0.309 | 0.282 | 0.265 |
| ABC-1 | 0.591 | 0.544 | 0.678 | 0.535 | 0.45 | 0.243 | 0.262 | 0.268 | 0.244 | 0.242 | 0.587 | 1.04 | 0.95 | 0.886 | 0.916 | 1.12 | 1.33 | 0.929 | 0.28 | 0.402 |
| BEN | 0.3 | 0.31 | 0.295 | 0.309 | 0.325 | 0.268 | 0.243 | 0.234 | 0.232 | 0.217 | 0.718 | 0.605 | 0.785 | 0.744 | 0.612 | 0.517 | 0.436 | 0.383 | 0.288 | 0.243 |
| CAL-12T | 0.582 | 0.515 | 0.531 | 0.512 | 0.45 | 0.617 | 0.568 | 0.572 | 0.519 | 0.63 | 0.751 | 0.562 | 0.622 | 0.554 | 0.589 |  |  |  |  |  |
| COR-L23 | 0.594 | 0.488 | 0.488 | 0.392 | 0.415 | 0.504 | 0.445 | 0.437 | 0.435 | 0.404 |  |  |  |  |  | 0.465 | 0.431 | 0.321 | 0.156 | 0.138 |
| COR-L 105 | 0.356 | 0.331 | 0.342 | 0.288 | 0.398 | 0.5 | 0.547 | 0.596 | 0.529 | 0.513 |  |  |  |  |  | 0.658 | 0.523 | 0.397 | 0.263 | 0.328 |
| ChaGo-K-1 | 0.653 | 0.552 | 0.629 | 0.572 | 0.547 | 0.541 | 0.535 | 0.446 | 0.415 | 0.431 | 0.881 | 0.87 | 0.836 | 0.893 | 0.874 | 0.409 | 0.276 | 0.297 | 0.2 | 0.184 |
| EKVX | 0.523 | 0.309 | 0.543 | 0.589 | 0.508 | 0.229 | 0.252 | 0.246 | 0.218 | 0.231 | 0.648 | 0.747 | 0.753 | 0.787 | 0.672 | 0.35 | 0.369 | 0.346 | 0.22 | 0.191 |
| EMC-BAC-2 | 0.346 | 0.339 | 0.176 | 0.259 | 0.332 | 0.606 | 0.528 | 0.505 | 0.483 | 0.482 | 1.05 | 1.1 | 1.1 | 1.09 | 1.04 | 0.829 | 0.663 | 0.428 | 0.219 | 0.264 |
| EPLC-272H | 0.456 | 0.375 | 0.321 | 0.404 | 0.327 | 0.318 | 0.264 | 0.361 | 0.34 | 0.301 | 0.272 | 0.296 | 0.209 | 0.262 | 0.112 | 0.325 | 0.284 | 0.0744 | 0.108 | 0.106 |
| H3255 | 0.396 | 0.383 | 0.393 | 0.419 | 0.346 | 0.354 | 0.382 | 0.352 | 0.341 | 0.368 | 1.08 | 0.887 | 0.938 | 1.05 | 0.788 | 0.469 | 0.392 | 0.338 | 0.228 | 0.218 |
| HARA | 0.3 | 0.281 | 0.226 | 0.262 | 0.241 | 0.607 | 0.434 | 0.476 | 0.367 | 0.38 | 0.379 | 0.397 | 0.4 | 0.266 | 0.203 | 0.496 | 0.379 | 0.379 | 0.203 | 0.156 |
| HCC-15 | 0.728 | 0.671 | 0.578 | 0.609 | 0.653 | 0.513 | 0.419 | 0.457 | 0.422 | 0.442 | 1.36 | 1.17 | 1.12 | 0.645 | 1.07 | 0.322 | 0.217 | 0.17 | 0.0917 | 0.111 |
| HCC-44 |  |  |  |  |  | 0.23 | 0.194 | 0.186 | 0.192 | 0.243 | 1.04 | 1.12 | 0.99 | 0.983 | 1.01 | 0.874 | 0.85 | 0.582 | 0.421 | 0.399 |
| HCC-78 | 0.423 | 0.51 | 0.357 | 0.355 | 0.367 | 0.816 | 0.773 | 0.604 | 0.646 | 0.692 | 0.675 | 0.652 | 0.604 | 0.832 | 0.736 | 0.685 | 0.775 | 0.485 | 0.27 | 0.244 |

Source: the supplement of paper PMC10307832
